Data: ChEMBL document CHEMBL1130376, “Effects of taxoids from Taxus cuspidata on microtubule depolymerization and vincristine accumulation in MDR cells” (Bioorg Med Chem Lett, 1997)
Values after ≈ are worked out from the molar mass of the structure shown.

How the values were obtained:
[1] = biological target: Tubulin alpha chain (Sus scrofa) (UniProt P02550); test: Tested for inhibitory concentration against […]-induced depolymerization of microtubules; type: functional
[2] = Vincristine (VCR) accumulation in multidrug resistant human ovarian cancer 2780 AD cells at a concentration 1 ug/mL; type: functional
[3] = Vincristine (VCR) accumulation in multidrug resistant human ovarian cancer 2780 AD cells at a concentration 10 ug/mL; type: functional
L1210 = test: Cytotoxicity against murine leukemia L1210 cells; type: functional, cell-based, Mus musculus; conditions: Mus musculus, L1210; read-out: IC50
[4] = Cytotoxicity against human epidermoid carcinoma KB cells; type: functional, cell-based

Chain of Tubulin alpha chain (Sus scrofa) (P02550 whole entry, looked up): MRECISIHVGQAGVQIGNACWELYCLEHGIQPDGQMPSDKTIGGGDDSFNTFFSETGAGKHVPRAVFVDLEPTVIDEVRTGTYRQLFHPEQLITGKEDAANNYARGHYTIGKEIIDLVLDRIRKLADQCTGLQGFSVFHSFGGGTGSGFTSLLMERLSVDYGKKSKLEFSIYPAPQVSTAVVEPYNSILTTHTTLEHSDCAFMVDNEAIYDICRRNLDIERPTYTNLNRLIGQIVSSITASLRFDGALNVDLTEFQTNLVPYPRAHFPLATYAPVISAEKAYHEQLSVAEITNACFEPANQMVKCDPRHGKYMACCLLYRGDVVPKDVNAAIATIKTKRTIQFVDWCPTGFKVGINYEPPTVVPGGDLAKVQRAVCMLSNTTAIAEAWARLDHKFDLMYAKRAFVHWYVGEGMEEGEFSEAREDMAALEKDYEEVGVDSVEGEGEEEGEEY

| Compound | Concentration [1] [µM] | vincristine accumulation (% of control) [2] [%] | vincristine accumulation (% of control) [3] [%] | IC50 (L1210) [µg/mL] | IC50 [4] [µg/mL] |
| --- | --- | --- | --- | --- | --- |
| CC(=O)O[C@H]1C(=O)[C@@]2(C)[C@H]([C@H](OC(=O)c3ccccc3)[C@]3(O)C[C@H](OC(=O)[C@H](O)[C@@H](NC(=O)c4ccccc4)c4ccccc4)C(C)=C1C3(C)C)[C@]1(OC(C)=O)CO[C@@H]1C[C@@H]2O | 10 | – | – | – | – |
| CC(=O)O[C@@H]1C2=C(C)[C@@H](O)C[C@@]2(C(C)(C)O)[C@@H](OC(C)=O)[C@@H]2[C@]3(OC(C)=O)CO[C@@H]3C[C@H](OC(C)=O)[C@@]2(C)[C@H]1OC(C)=O | – | 147 | 235 | > 10 | > 10 |
| CC(=O)O[C@H]1C[C@@]2(O)[C@H]3OC[C@]4(OC(C)=O)[C@H](O)C[C@H](OC(C)=O)[C@](C)([C@H]34)[C@@H](OC(C)=O)[C@H](OC(C)=O)C(=C1C)C2(C)C | – | 167 | 234 | 4.5 (≈ 7.37 µM) | 8.8 (≈ 14.4 µM) |
| C=C1[C@@H](OC(=O)/C=C/c2ccccc2)CC[C@@]2(C)[C@@H](OC(C)=O)[C@H](OC(C)=O)C3=C(C)C(=O)C[C@@H]([C@@H](OC(C)=O)[C@H]12)C3(C)C | – | 195 | 571 | > 10 | > 10 |
| C=C1[C@@H](OC(=O)/C=C/c2ccccc2)C[C@H](OC(C)=O)[C@]2(C)[C@@H]1C[C@]1(C(C)(C)O)C[C@H](OC(C)=O)C(C)=C1[C@@H](OC(=O)c1ccccc1)[C@@H]2OC(C)=O [TAXUSPINE A] | – | 142 | 246 | 4.2 (≈ 5.76 µM) | > 10 |
| CC(=O)O[C@H]1C[C@H]2OC[C@@]2(OC(C)=O)[C@H]2[C@H](OC(C)=O)[C@]3(C(C)(C)O)C[C@H](OC(=O)/C=C/c4ccccc4)C(C)=C3[C@@H](OC(=O)c3ccccc3)[C@H](OC(C)=O)[C@]12C [TAXCHININ B] | – | 219 | 639 | 3.8 (≈ 4.73 µM) | > 10 |
